In this assay the test system is P388 leukemia ip, CD2F1 mice, survival T/C. The assay is described as follows: NCI In Vivo Anticancer Drug Screen. Data for tumor model P388 Leukemia (intraperitoneal) in CD2F1 (CDF1) mice. As to conditions: endpoint: median survival time, higher = longer survival. Summed up: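 Mice carrying the transplanted tumor received test compound or vehicle. Survival was recorded in each group, and the value is the treated-group measurement divided by that of the vehicle-treated control group.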

Where [1] appears, read: dose: 12.5 mg/kg/injection, schedule: Q01DX009 (ip), vehicle: saline with Tween-80.
Where [2] appears, read: dose: 25.0 mg/kg/injection, schedule: Q01DX009 (ip), vehicle: saline with Tween-80.
[3] abbreviates: dose: 50.0 mg/kg/injection, schedule: Q01DX009 (ip), vehicle: saline with Tween-80.
Where [4] appears, read: dose: 50.0 mg/kg/injection, schedule: Q01DX005 (ip), vehicle: saline with Tween-80.
[5] abbreviates: dose: 50.0 mg/kg/injection, schedule: Q01DX005 (ip), vehicle: Klucel (hydroxypropylcellulose) (HPC).
[6] abbreviates: dose: 100.0 mg/kg/injection, schedule: Q01DX005 (ip), vehicle: Klucel (hydroxypropylcellulose) (HPC).
The mark [7] stands for this setting: dose: 200.0 mg/kg/injection, schedule: Q01DX005 (ip), vehicle: Klucel (hydroxypropylcellulose) (HPC).
The mark [8] stands for this setting: dose: 200.0 mg/kg/injection, schedule: Q01DX009 (ip), vehicle: saline with Tween-80.

Values joined by “and” are separate entries in the source; they are usually repeats but may differ in a detail not shown here. Identical values can stand only once. Toxic doses and inconclusive results are not listed. Peptide text beside a SMILES is read from it. * marks the point of attachment. Cbz = O=C(OCc1ccccc1)*

The results in this text go back to PubChem BioAssay AID330 (DTP/NCI, 2004).

`O=Nc1ccc(Cl)cc1`: the T/C is 103 % of control (dose: 12.5 mg/kg/injection, schedule: Q04DX003 (ip), vehicle: Klucel (hydroxypropylcellulose) (HPC)); 101 % of control (dose: 25.0 mg/kg/injection, schedule: Q04DX003 (ip), vehicle: Klucel (hydroxypropylcellulose) (HPC)); 93 % of control (dose: 50.0 mg/kg/injection, schedule: Q04DX003 (ip), vehicle: Klucel (hydroxypropylcellulose) (HPC)).

Turning to `CCOC(=O)c1c(N)c(C(=O)c2ccccc2)n2ccc3ccccc3c12`, the T/C (dose: 100.0 mg/kg/injection, schedule: Q04DX002 (ip), vehicle: saline with Tween-80) was 100 % of control; the T/C (dose: 200.0 mg/kg/injection, schedule: Q04DX002 (ip), vehicle: saline with Tween-80) was 99 % of control; the T/C (dose: 400.0 mg/kg/injection, schedule: Q04DX002 (ip), vehicle: saline with Tween-80) was 92 % of control.

Turning to `N#CCCN(C(=O)Nc1ccc(Cl)c(Cl)c1)C1CCCCC1`, the T/C under setting [1] is 98 % of control; the T/C under setting [2] was 101 % of control and 104 % of control; the T/C under setting [3] is 100 % of control and 103 % of control; the T/C (dose: 100.0 mg/kg/injection, schedule: Q01DX009 (ip), vehicle: saline with Tween-80) is 91 % of control and 97 % of control.

`CC(=O)OC1C2=C(C)C(=O)OC2=CC2=CCCC(C)C21C` (stereo unspecified): the T/C is 102 % of control (dose: 4.0 mg/kg/injection, schedule: Q01DX009 (ip), vehicle: Klucel (hydroxypropylcellulose) (HPC)); 91 % of control (dose: 8.0 mg/kg/injection, schedule: Q01DX009 (ip), vehicle: Klucel (hydroxypropylcellulose) (HPC)); 102 % of control (dose: 16.0 mg/kg/injection, schedule: Q01DX009 (ip), vehicle: Klucel (hydroxypropylcellulose) (HPC)); 109 % of control (dose: 32.0 mg/kg/injection, schedule: Q01DX009 (ip), vehicle: Klucel (hydroxypropylcellulose) (HPC)).

On to `COC(=O)N1CCCc2ccc3c(OC)c(OC)cc(c3c2)CC1`, for which the T/C is 100 % of control (dose: 60.0 mg/kg/injection, schedule: Q01DX005 (ip), vehicle: Klucel (hydroxypropylcellulose) (HPC)); 100 % of control (dose: 120.0 mg/kg/injection, schedule: Q01DX005 (ip), vehicle: Klucel (hydroxypropylcellulose) (HPC)); 88 % of control (dose: 240.0 mg/kg/injection, schedule: Q01DX005 (ip), vehicle: Klucel (hydroxypropylcellulose) (HPC)).

With `COc1cc2cc(c1Cl)NC(=O)CC(OC(=O)C(C)N(C)C(=O)C(C)C)C1(C)OC1C(C)C1CC(O)(NC(=O)O1)C(OC)/C=C/C=C(C)C2OC` (stereo unspecified), the T/C reads like this: (dose: 8.0 micrograms/kg/injection, schedule: Q01DX009 (ip), vehicle: distilled water + Tween-80 + alcohol) 161 % of control; (dose: 16.0 micrograms/kg/injection, schedule: Q01DX009 (ip), vehicle: distilled water + Tween-80 + alcohol) 155 % of control and 179 % of control; (dose: 32.0 micrograms/kg/injection, schedule: Q01DX009 (ip), vehicle: distilled water + Tween-80 + alcohol) 154 % of control and 184 % of control; (dose: 64.0 micrograms/kg/injection, schedule: Q01DX009 (ip), vehicle: distilled water + Tween-80 + alcohol) 86 % of control.

For the compound `Cc1nnc(N/N=C/c2ccccc2)n1/N=C\c1ccccc1`, the T/C runs as follows: (dose: 100.0 mg/kg/injection, schedule: Q04DX003 (ip), vehicle: Klucel (hydroxypropylcellulose) (HPC)) 101 % of control; (dose: 200.0 mg/kg/injection, schedule: Q04DX003 (ip), vehicle: Klucel (hydroxypropylcellulose) (HPC)) 100 % of control; (dose: 400.0 mg/kg/injection, schedule: Q04DX003 (ip), vehicle: Klucel (hydroxypropylcellulose) (HPC)) 105 % of control.

Regarding `O=C(O)C(c1ccccc1)C1CCCCC1C1CCCCC1` (stereo unspecified), the T/C was 98 % of control (dose: 12.5 mg/kg/injection, schedule: Q01DX005 (ip), vehicle: saline with Tween-80); 95 % of control (dose: 25.0 mg/kg/injection, schedule: Q01DX005 (ip), vehicle: saline with Tween-80); 100 % of control and 93 % of control under setting [4].

Consider `FC(F)(F)COP(c1ccccc1)c1ccccc1`, for which the T/C is, setting by setting: under setting [4], 113 % of control; (dose: 100.0 mg/kg/injection, schedule: Q01DX005 (ip), vehicle: saline with Tween-80) 111 % of control; (dose: 200.0 mg/kg/injection, schedule: Q01DX005 (ip), vehicle: saline with Tween-80) 114 % of control.

On to `NOCCCCCON`, for which the T/C (dose: 50.0 mg/kg/injection, schedule: Q01DX009 (ip), vehicle: Klucel (hydroxypropylcellulose) (HPC)) is 100 % of control and the T/C (dose: 100.0 mg/kg/injection, schedule: Q01DX009 (ip), vehicle: Klucel (hydroxypropylcellulose) (HPC)) is 106 % of control.

On to `CC1=C([N+](=O)[O-])[C@@H](N2CCOCC2)[C@](C)(N2CCOCC2)S1`, for which the T/C was 105 % of control under setting [5], 105 % of control under setting [6] and 105 % of control under setting [7].

Regarding `CC(C)=CCc1c(C)cc2cc3c(c(O)c2c1O)C(O)=CC(=O)C3(CC=C(C)C)CC=C(CO)CO` (stereo unspecified), the T/C is 97 % of control (dose: 25.0 mg/kg/injection, schedule: Q01DX005 (ip), vehicle: Klucel (hydroxypropylcellulose) (HPC)); 93 % of control under setting [5]; 94 % of control under setting [6].

Turning to `Cc1c2ccncc2c(CNC(=O)C(N)Cc2c[nH]c3ccccc23)c2c3ccccc3n(C)c12` (stereo unspecified), the T/C runs as follows: (dose: 6.25 mg/kg/injection, schedule: Q04DX002 (ip), vehicle: saline with Tween-80) 108 % of control; (dose: 12.5 mg/kg/injection, schedule: Q04DX002 (ip), vehicle: saline with Tween-80) 112 % of control; (dose: 25.0 mg/kg/injection, schedule: Q04DX002 (ip), vehicle: saline with Tween-80) 115 % of control; (dose: 50.0 mg/kg/injection, schedule: Q04DX002 (ip), vehicle: saline with Tween-80) 117 % of control.

For `COc1ccc2cc3cccc[n+]3cc2c1`, the T/C reads like this: (dose: 0.19 mg/kg/injection, schedule: Q01DX005 (ip), vehicle: Klucel (hydroxypropylcellulose) (HPC)) 100 % of control; (dose: 0.39 mg/kg/injection, schedule: Q01DX005 (ip), vehicle: Klucel (hydroxypropylcellulose) (HPC)) 110 % of control; (dose: 0.78 mg/kg/injection, schedule: Q01DX005 (ip), vehicle: Klucel (hydroxypropylcellulose) (HPC)) 108 % of control and 97 % of control.

For `Cc1nc2ncn(-c3ccccc3)c2c(=O)n1CC(C)C`, the T/C is 100 % of control under setting [5], 101 % of control under setting [6] and 102 % of control under setting [7].

In the case of `O=C(O)CCC(=O)NCCNC(=O)CCC(=O)O`, the T/C (dose: 50.0 mg/kg/injection, schedule: Q01DX009 (ip), vehicle: saline) is 101 % of control; the T/C (dose: 100.0 mg/kg/injection, schedule: Q01DX009 (ip), vehicle: saline) is 101 % of control; the T/C (dose: 200.0 mg/kg/injection, schedule: Q01DX009 (ip), vehicle: saline) is 104 % of control.

On to `COC(=O)NC(=S)Nc1nncs1`, for which the T/C (dose: 25.0 mg/kg/injection, schedule: Q04DX003 (ip), vehicle: saline with Tween-80) is 101 % of control; the T/C (dose: 50.0 mg/kg/injection, schedule: Q04DX003 (ip), vehicle: saline with Tween-80) was 105 % of control; the T/C (dose: 100.0 mg/kg/injection, schedule: Q04DX003 (ip), vehicle: saline with Tween-80) is 105 % of control.

In the case of `COC(=O)C1=NOC(COc2ccc([N+](=O)[O-])cc2)C1` (stereo unspecified), the T/C reads like this: (dose: 60.0 mg/kg/injection, schedule: Q01DX005 (ip), vehicle: saline with Tween-80) 100 % of control; (dose: 120.0 mg/kg/injection, schedule: Q01DX005 (ip), vehicle: saline with Tween-80) 93 % of control; (dose: 240.0 mg/kg/injection, schedule: Q01DX005 (ip), vehicle: saline with Tween-80) 86 % of control.

`CCCCCCC(=O)/C=C/c1cccc(OCc2ccc([N+](=O)[O-])cc2)c1`: the T/C is, setting by setting: under setting [1], 86 % of control; under setting [2], 89 % of control; under setting [3], 87 % of control and 91 % of control; under setting [8], 88 % of control.

With `CCOC(=O)CCC(NC(=O)C(CCC(=O)OCC)NC(=O)OCc1ccccc1)C(=O)O` (stereo unspecified) (tested in a mixture with another compound) (Cbz-Glu(OEt)-Glu(OEt)-OH; configuration not given here), the T/C runs as follows: under setting [5], 100 % of control; under setting [6], 100 % of control; under setting [7], 100 % of control.

Turning to `CN=S(=O)(OCCCCCOS(=O)(=NC)c1ccccc1)c1ccccc1` (stereo unspecified), the T/C under setting [3] is 124 % of control; the T/C under setting [8] was 158 % of control and 170 % of control.
